The structures appear in SMILES notation. Marks after values point to notes of the source that are not given here.

Common to all, as to format: in vivo, male Wistar rats
The nature of data set [1]: Open field activity monitor, test for sedation in normal rats. To be noted: for largest non-sedating dose: intraperitoneally, rats; for open field activity monitor, mean: male, Wistar, rat, in vivo, ip, 20 min. On the procedure:
(§1) Experiments were performed on male Wistar rats (wt 150-220g). Two series of experiments were performed in an observer blinded fashion with saline (negative) controls and GABAPentin (positive) controls. The investigations were in two stages: • 1. a range of doses of aprepitant (an example of a NK antagonist) given alone and in combination with flupirtine (an example of an inhibitor of neuronal excitation) were tested for sedating effects using the open field activity monitor.
Individual rats (several rats per treatment group) were placed in an open field activity monitor in which the movement of the rat could be monitored remotely by the frequency and number of interruption of infrared beams directed across the box in a grid. The activity in the monitor was measured for periods of 20 minutes in each rat. This was performed in groups of rats that received (1) control injection of saline, (2) GABAPentin 50 mg/kg as the maximum dose of that drug found previously not to be sedating (drug positive control) administered intraperitoneally, or (3) after pharmacological interventions that involve the administration of aprepitant and flupirtine given at a range of doses alone and in combination. If a rat was sedated by a drug or drug combination, the movements recorded were less. Since rats become habituated to the open field monitor, only one experiment was performed on each rat with this test.
These were the upper dose limits for subsequent experiments investigating the analgesic effects of these drugs administered together in combinations.

Data set [2] has as its system streptozotocin-induced diabetic neuropathy. The data set can be described thus: Reversal of heat hyperalgesia (paw flick, Hargreaves) in streptozotocin-induced diabetic neuropathy.
Data set [3] has the same test system. The data set can be described thus: Reversal of allodynia (von Frey hair) in streptozotocin-induced diabetic neuropathy. As to conditions: each drug alone at non sedating doses, intraperitoneal. The protocol: as §1
Rats were injected intraperitoneally with streptozotocin (150 mg per kg total dose—Sapphire Bioscience) dissolved in sodium chloride 0.9%. The induction of diabetes was confirmed one week after injection of streptozotocin and weekly thereafter by measurement of tail vein blood glucose levels with Ames Glucofilm test strips and Ames Glucometer blood glucose meter. Only animals with blood glucose levels greater than or equal to 15 mM and maintained continuously for 5 weeks were deemed to be diabetic. […] At the end of five weeks these rats were assessed with the methods of measuring hyperalgesia (paw flick—Hargreaves method) and allodynia (withdrawal from von Frey Hair stimulation at normally non noxious intensity) to elucidate the antinociceptive effects of flupirtine and aprepitant given intraperitoneally alone and in combination (with saline and GABApentin for comparison).

`NCC1(CC(=O)O)CCCCC1` [GABAPentin]: the largest non-sedating dose in data set [1] stood at 50 mg/kg. Moreover, the “reversal of hyperalgesia (statistics)” value in data set [2] (GABAPentin 50 mg/kg alone vs saline, P<0.01) was “statistically significant reversal of hyperalgesia”. Also, the “percentage reversal of the hyperalgesia, mean” value in data set [2] (GABAPentin 50 mg/kg intraperitoneally alone, noxious heat to hind paw, n=17) stood at 27.67.
Consider `C[C@@H](O[C@H]1OCCN(Cc2n[nH]c(=O)[nH]2)[C@H]1c1ccc(F)cc1)c1cc(C(F)(F)F)cc(C(F)(F)F)c1` [aprepitant], for which the largest non-sedating dose in data set [1] is reported as 6.25 mg/kg. The “open field activity monitor, mean” value is recorded as 869.0 in data set [1] (6.25 mg/kg); 915.0* in data set [1] (12.5 mg/kg); 964.6* in data set [1] (25 mg/kg); 976.6* in data set [1] (50 mg/kg); 1058.2 in data set [1] (100 mg/kg). For the same compound, in data set [3], the “antinociception with respect to allodynia” value is reported as “Neither drug at non sedating doses causes significant antinociception”.
